Molecular target: T1, HIV reverse transcriptase (Human immunodeficiency virus type 1 group M subtype B, UniProt P04585)
T1 construct: 0.025 U/μL HIV reverse transcriptase
Assay: Steady-state kinetics of nucleotide incorporation in a DNA hybrid by HIV reverse transcriptase
Format: biochemical
Conditions: 0.025 U/μL HIV reverse transcriptase, 250 nM primer/template, average of three determinations
Method: Determination of Km and Kcat values for the incorporation of dATP and PMDTApp in a DNA hybrid was carried out under steady-state conditions as described by Creighton et al. in Methods in Enzymology (1995) 262:232-256. […] Results given below are the average of three independent determinations. The reaction mixture contained 250 nM primer/template complex 0.025 U/μL HIV reverse transcriptase, and the triphosphate nucleotides to be incorporated (dATP and PMDTApp, respectively). The template sequence and the primer sequence used in this experiment are shown below. The reaction was quenched after 1, 2 and 3 minutes by adding a double volume of stop solution (90% formamide, 0.05% bromophenol blue, 0.05% xylene cyanol and 50 mM EDTA). Samples were analyzed by gel electrophoresis on a 16% polyacrylamide ureum gel in TBE buffer (89 mM Tris-borate, 2 mM EDTA buffer, pH 8.3) after heating the samples for 5 minutes at 70° C. Products were visualised by phosphorimaging. The amount of radioactivity in the bands corresponding to the products of the enzymatic reactions was determined using the Optiquant Image Analysis Software (Packard). Rate profiles were determined using GraphPad Prism® software.

Nc1ncnc2c1ncn2[C@H]1C[C@H](O)[C@@H](COP(=O)(O)OP(=O)(O)OP(=O)(O)O)O1 [dATP, deoxy-adenosine triphosphate]
Kcat: 0.66 min − 1 | Km: 0.1 µM

— patent US8076310B2, “Phosphonate nucleosides useful as active ingredients in pharmaceutical compositions for the treatment of viral infections, and intermediates for their production” (K.U.Leuven Research & Development, priority 2004, dated 2011)
